Measured values published in PubChem BioAssay (NCI).
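These data come from cells grown in 96-well plates and exposed to compound for 48 hours at five concentrations. GI50 is the concentration that inhibits growth by half. TGI: total growth inhibition.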

What was measured:
Assay in all cases: inhibition of tumour cell growth, NCI panel, 48 h
SF-268 CNS = tested on: SF-268 CNS
RPMI-8226 leukemia = tested on: RPMI-8226 leukemia
HCC-2998 colon = tested on: HCC-2998 colon
OVCAR-4 ovarian = tested on: OVCAR-4 ovarian
NCI/ADR-RES ovarian = tested on: NCI/ADR-RES ovarian
HT29 colon = tested on: HT29 colon
ACHN renal = tested on: ACHN renal
HS 578T breast = tested on: HS 578T breast
NCI-H522 lung = tested on: NCI-H522 lung
T-47D breast = tested on: T-47D breast
SK-OV-3 ovarian = tested on: SK-OV-3 ovarian
SNB-75 CNS = tested on: SNB-75 CNS
IGROV1 ovarian = tested on: IGROV1 ovarian
786-0 renal = tested on: 786-0 renal
NCI-H460 lung = tested on: NCI-H460 lung
K-562 leukemia = tested on: K-562 leukemia
PC-3 prostate = tested on: PC-3 prostate
HCT-15 colon = tested on: HCT-15 colon
OVCAR-8 ovarian = tested on: OVCAR-8 ovarian
M14 melanoma = tested on: M14 melanoma
HCT-116 colon = tested on: HCT-116 colon
U251 CNS = tested on: U251 CNS
BT-549 breast = tested on: BT-549 breast
CAKI-1 renal = tested on: CAKI-1 renal
SK-MEL-2 melanoma = tested on: SK-MEL-2 melanoma
HOP-62 NSCLC = tested on: HOP-62 NSCLC
NCI-H23 lung = tested on: NCI-H23 lung
NCI-H226 lung = tested on: NCI-H226 lung
SF-295 CNS = tested on: SF-295 CNS
MALME-3M melanoma = tested on: MALME-3M melanoma
MCF7 breast = tested on: MCF7 breast
SK-MEL-5 melanoma = tested on: SK-MEL-5 melanoma
OVCAR-5 ovarian = tested on: OVCAR-5 ovarian
CCRF-CEM leukemia = tested on: CCRF-CEM leukemia
UACC-62 melanoma = tested on: UACC-62 melanoma
COLO 205 colon = tested on: COLO 205 colon
SN12C renal = tested on: SN12C renal
UACC-257 melanoma = tested on: UACC-257 melanoma
TK-10 renal = tested on: TK-10 renal
EKVX NSCLC = tested on: EKVX NSCLC
LOX IMVI melanoma = tested on: LOX IMVI melanoma
HL-60(TB) leukemia = tested on: HL-60(TB) leukemia
A549 NSCLC = tested on: A549 NSCLC
SW-620 colon = tested on: SW-620 colon
RXF 393 renal = tested on: RXF 393 renal
SK-MEL-28 melanoma = tested on: SK-MEL-28 melanoma
DU-145 prostate = tested on: DU-145 prostate
A498 renal = tested on: A498 renal
SF-539 CNS = tested on: SF-539 CNS
MOLT-4 leukemia = tested on: MOLT-4 leukemia
SNB-19 CNS = tested on: SNB-19 CNS
KM12 colon = tested on: KM12 colon
UO-31 renal = tested on: UO-31 renal
HOP-92 NSCLC = tested on: HOP-92 NSCLC
MDA-MB-231 breast = tested on: MDA-MB-231 breast
MDA-MB-435 = tested on: MDA-MB-435

`COc1cc(/C=C\c2cc(/C=C\c3ccc(O)c(OC)c3)n(C(=O)COc3ccc(Cl)cc3Cl)n2)ccc1O` was tested, and the GI50 (SF-268 CNS) was 621 nM, the TGI (SF-268 CNS) was 9840 nM and the GI50 (RPMI-8226 leukemia) was 569 nM. It also gave a TGI (RPMI-8226 leukemia) of 7620 nM, a GI50 (HCC-2998 colon) of 2890 nM and a TGI (HCC-2998 colon) of 12400 nM. For the same molecule, the GI50 (OVCAR-4 ovarian) was 1290 nM, the TGI (OVCAR-4 ovarian) was over 100000 nM and the GI50 (NCI/ADR-RES ovarian) was 538 nM. It also gave a TGI (NCI/ADR-RES ovarian) of 21100 nM, a GI50 (HT29 colon) of 2750 nM and a TGI (HT29 colon) of 7030 nM. For the same molecule, the GI50 (ACHN renal) was 476 nM, the TGI (ACHN renal) was 9130 nM and the GI50 (HS 578T breast) was 1200 nM. The TGI (HS 578T breast) was over 100000 nM, the GI50 (NCI-H522 lung) was 196 nM and the TGI (NCI-H522 lung) was 837 nM. It also gave a GI50 (T-47D breast) of 1250 nM, a TGI (T-47D breast) of 3990 nM and a GI50 (SK-OV-3 ovarian) of 1260 nM. For the same molecule, the TGI (SK-OV-3 ovarian) was 3430 nM, the GI50 (SNB-75 CNS) was 994 nM and the TGI (SNB-75 CNS) was 7810 nM. For the same molecule, the GI50 (IGROV1 ovarian) was 1990 nM, the TGI (IGROV1 ovarian) was 10300 nM and the GI50 (786-0 renal) was 634 nM. For the same molecule, the TGI (786-0 renal) was 2520 nM, the GI50 (NCI-H460 lung) was 517 nM and the TGI (NCI-H460 lung) was 14200 nM. The GI50 (K-562 leukemia) was 381 nM, the TGI (K-562 leukemia) was over 100000 nM and the GI50 (PC-3 prostate) was 1800 nM. For the same molecule, the TGI (PC-3 prostate) was 8020 nM, the GI50 (HCT-15 colon) was 342 nM and the TGI (HCT-15 colon) was 3610 nM. It also gave a GI50 (OVCAR-8 ovarian) of 1590 nM, a TGI (OVCAR-8 ovarian) of 6090 nM and a GI50 (M14 melanoma) of 349 nM. The TGI (M14 melanoma) was 4830 nM, the GI50 (HCT-116 colon) was 416 nM and the TGI (HCT-116 colon) was 6210 nM. It also gave a GI50 (U251 CNS) of 916 nM, a TGI (U251 CNS) of 6150 nM and a GI50 (BT-549 breast) of 526 nM. The TGI (BT-549 breast) was 3340 nM, the GI50 (CAKI-1 renal) was 818 nM and the TGI (CAKI-1 renal) was over 100000 nM. The GI50 (SK-MEL-2 melanoma) was 302 nM, the TGI (SK-MEL-2 melanoma) was 1540 nM and the GI50 (HOP-62 NSCLC) was 519 nM. For the same molecule, the TGI (HOP-62 NSCLC) was 3160 nM, the GI50 (NCI-H23 lung) was 1060 nM and the TGI (NCI-H23 lung) was 5000 nM. For the same molecule, the GI50 (NCI-H226 lung) was 2980 nM, the TGI (NCI-H226 lung) was 10200 nM and the GI50 (SF-295 CNS) was 3070 nM. The TGI (SF-295 CNS) was 8870 nM, the GI50 (MALME-3M melanoma) was 488 nM and the TGI (MALME-3M melanoma) was 5030 nM. It also gave a GI50 (MCF7 breast) of 336 nM, a TGI (MCF7 breast) of 2330 nM and a GI50 (SK-MEL-5 melanoma) of 661 nM. The TGI (SK-MEL-5 melanoma) was 3030 nM, the GI50 (OVCAR-5 ovarian) was 2710 nM and the TGI (OVCAR-5 ovarian) was 8320 nM. It also gave a GI50 (CCRF-CEM leukemia) of 432 nM, a TGI (CCRF-CEM leukemia) of over 100000 nM and a GI50 (UACC-62 melanoma) of 552 nM. The TGI (UACC-62 melanoma) was 12000 nM, the GI50 (COLO 205 colon) was 1980 nM and the TGI (COLO 205 colon) was 4010 nM. It also gave a GI50 (SN12C renal) of 935 nM, a TGI (SN12C renal) of 65800 nM and a GI50 (UACC-257 melanoma) of 2190 nM. For the same molecule, the TGI (UACC-257 melanoma) was 7130 nM, the GI50 (TK-10 renal) was 1790 nM and the TGI (TK-10 renal) was 8060 nM. For the same molecule, the GI50 (EKVX NSCLC) was 1980 nM, the TGI (EKVX NSCLC) was 9720 nM and the GI50 (LOX IMVI melanoma) was 497 nM. The TGI (LOX IMVI melanoma) was 3290 nM, the GI50 (HL-60(TB) leukemia) was 314 nM and the TGI (HL-60(TB) leukemia) was 1310 nM. The GI50 (A549 NSCLC) was 1310 nM, the TGI (A549 NSCLC) was 10300 nM and the GI50 (SW-620 colon) was 659 nM. For the same molecule, the TGI (SW-620 colon) was over 100000 nM, the GI50 (RXF 393 renal) was 1270 nM and the TGI (RXF 393 renal) was 3330 nM. It also gave a GI50 (SK-MEL-28 melanoma) of 1190 nM, a TGI (SK-MEL-28 melanoma) of 7320 nM and a GI50 (DU-145 prostate) of 833 nM. It also gave a TGI (DU-145 prostate) of 9940 nM, a GI50 (A498 renal) of 3820 nM and a TGI (A498 renal) of 12000 nM. For the same molecule, the GI50 (SF-539 CNS) was 380 nM, the TGI (SF-539 CNS) was 2850 nM and the GI50 (MOLT-4 leukemia) was 425 nM. It also gave a TGI (MOLT-4 leukemia) of 3460 nM, a GI50 (SNB-19 CNS) of 1410 nM and a TGI (SNB-19 CNS) of 11700 nM. The GI50 (KM12 colon) was 506 nM, the TGI (KM12 colon) was 26200 nM and the GI50 (UO-31 renal) was 362 nM. For the same molecule, the TGI (UO-31 renal) was 2300 nM, the GI50 (HOP-92 NSCLC) was 2930 nM and the TGI (HOP-92 NSCLC) was 7940 nM. The GI50 (MDA-MB-231 breast) was 2380 nM, the TGI (MDA-MB-231 breast) was 23400 nM and the GI50 (MDA-MB-435) was 243 nM. The TGI (MDA-MB-435) was 14700 nM.
